Reference: US6013795A, “Alpha-branched fluoroalkylcarbonyl fluorides and their derivatives” (3M Innovative Properties Company, priority 1996, dated 2000)
Entries after “also recorded” stand apart in the source; their conditions may differ.

Assays:
[1] = test system: rat; assay: exhaust gas monitoring of dosed rat in uptake desiccator chamber; assay type: in vivo; conditions: 500 mg/kg
Method: Additional biological testing of C7 F15 CF(CF3)COO^- NH4^+ in rats was conducted using the following test apparatus. An uptake desiccator jar chamber was designed with top and bottom portions, the top portion equipped with an inlet port, an outlet port, oxygen monitor and pressure gage. An oxygen gas tank supplied oxygen into the inlet port, and the oxygen level in the chamber was maintained at a normal ambient level as measured by the oxygen monitor and pressure gage. The outlet port was connected in series with a carbon dioxide scrubber and particulate filter, which in turn was connected to a loop containing a stainless steel bellows pump operating at about 2 L/min. Most of the gas in the loop was recycled into the inlet port, but about 100 mL/min was directed through a secondary loop to a gas chromatograph equipped with a 0.5 mL gas sampling loop.
A rat dosed at 500 mg/kg was placed in the bottom portion of the chamber, the top portion was attached, and the assembled chamber was placed in an ice-filled pan to allow for the condensation of water. The oxygen flow was started, and the exhaust gases were monitored for the presence of CF3 CF=CF(C6 F13) and C7 F15 CFHCF3, aqueous degradation products of C7 F15 CF(CF3)COOH, using known standards of this olefin and hydride in the gas chromatograph. […] After 24 minutes, one slight chromatographic peak was noted, corresponding to the monohydride. After 92 minutes, the peak became noticeably larger and a second peak formed, corresponding to the olefin.

[2] = surface tension of aqueous surfactant solutions and critical micelle concentration (K-12 Processor Tensiometer); assay type: physicochemical; conditions: carboxylate salts, deionized water; Table 5
From the text: Critical Micelle Concentration (CMC): The critical micelle concentration is defined as the concentration at which further surface tension is no longer lowered with increasing levels of surfactant. […] Surface tension is then plotted vs. log concentration and the data points are connected. The resulting curve has a nearly horizontal flat portion at concentrations above the CMC and has a negative steep slope at concentrations below the CMC. The CMC is defined as the lowest surfactant concentration in the horizontal flat portion of the curve.
(§1) Then the critical micelle concentration (CMC) was determined for each surfactant.
as §1

[3] = test system: rats; assay: acute LD50, one-time feeding study of rats; assay type: in vivo, rat; conditions: for toxicity rating: acute
Method: Acute LD50 measurements for a one-time feeding study of rats were determined over a 21 day period for both the α-branched perfluorocarboxylate salt, C7 F15 CF(CF3)COO^- NH4^+, and its straight chain isomer, CF3 (CF2)8 COO^- NH4^+.

[4] = emulsion polymerization of vinylidene fluoride and hexafluoropropylene with surfactant as emulsifier
From the text: The following procedure was used to evaluate C7 F15 CF(CF3)COO^- NH4^+ (from Ex. M1) as an emulsifier to copolymerize hexafluoropropylene (HFP) and vinylidene fluoride.
A 1 gallon, vertically agitated stainless steel reactor with pressure and temperature controls was evacuated and twice purged with nitrogen. Using an isolated vacuum, a solution comprised of 2 g of ammonium persulfate (initiator) and 6 g of dipotassium phosphate dissolved in 2800 g of deionized water was introduced into the reactor. The remaining vacuum on the reactor was vented with nitrogen, and the solution was degassed twice under agitation using alternate vacuum and nitrogen purges. […] The reactor was vented with nitrogen, the solution was agitated very briefly, and the reactor was evacuated of nitrogen and isolated. Then the reactor was vented with hexafluoropropylene monomer to a pressure of approximately 10 psig (1280 torr total pressure), and the temperature of the batch was raised to 72° C. with high agitation. Maintaining the temperature at 72° C., a monomer mixture of 60% (wt) of vinylidene fluoride and 40% (wt) hexafluoropropylene was fed from a tared gas cylinder into the head space of the reactor to maintain a reactor pressure of 130 psig (7480 total pressure). After feeding in about 1 kg of monomer blend (approximately 3.75 hours duration), the introduction of monomer was ceased, the reaction was allowed to cool to room temperature, and any residual unreacted monomer was vented.
The resulting latex polymer was drained from the reactor, and percent solids of the latex was determined to be 25% by weight as measured by drying 10 g of latex in a forced air oven for 16 hours at 105° C.
The reactor body was separated from the reactor head, and a visual inspection of the reactor was made to determine the amount of coagulated polymer in the reactor (the amount should be minimal in a good polymerization reaction). A qualitative rating was assessed, ranging from "none" to "little" to "some."
The latex stability was determined by half filling a 16 oz (450 mL) jar with latex and shaking several hours in the horizontal position, quantitatively rating the latex after shaking using a 3-point scale ranging from 0=very stable to 3=unstable.
Particle size in the latex was determined using 90° scattering on a Coulter sub-micron particle size analyzer.
Degree of foaming was rated using the following qualitative scale: 0=not foamy, 1=slightly foamy, 2=moderately foamy, and 3=very foamy.
In Example P2, the same experiment was run as in Example P1, except that the concentration of C7 F15 CF(CF3)COO^- NH4^+emulsifier was raised to 3500 ppm, the reaction time decreased from 3.75 to 3.5 hours, and the reaction temperature increased from 72° C. to 78° C.
In Comparative Examples P3-P6, the same experiment was run as in Example P1, except that C8 F17 SO2 N(C2 H5)CH2 COO^- K^+ (Fluorad™ FC-128 Fluorochemical Surfactant, available from 3M Company, St. Paul, Minn.), C7 F15 COO^- H4 N^+ (Fluorad™ FC-143 Fluorochemical Surfactant), and Surflon™ S111S Fluorochemical Surfactant (believed to be nominally telomer-based n-C9 F19 COO^- H4 N^+, commercially available from Asahi Glass Corp., Japan) were substituted for C7 F15 CF(CF3)COO^- H4 N^+ emulsifier.
In Comparative Example P7, the same experiment was run as in Example P1, except that no emulsifier was used.

[5] = degradation of aqueous salt solution stored at room temperature; assay type: physicochemical; conditions: same 1 year period
Method: The α-branched open chain ammonium salt compounds from Examples N3-N6 were dissolved in deionized water at a concentration of 5% by weight (0.5 g ammonium salt in 10 mL water) and were stored at room temperature.

[6] = thermal degradation of neat perfluorocarboxylate salts by thermogravimetric analysis; assay type: physicochemical; conditions: TGA 10° C./min, nitrogen
From the text: Thermal degradation measurements were made on a series of neat perfluorocarboxylate salts, including several α-branched open chain structures (Examples N2-N9), a primarily linear open chain structure (Example N10--Fluorad™ FC-143 Fluorochemical Surfactant, commercially available from 3M Company, St. Paul, Minn.), and a closed chain (i.e., cyclic) structure (Example N11- made by the electrochemical fluorination of benzoic acid and hydrolysis in the presence of KOH, as described in U.S. Pat. No. 2,567,011 (Diesslin et al.)).
The perfluorocarboxylate salts were tested using a Perkin-Elmer TGA 7 thermogravimetric analysis apparatus and a salt sample size of approximately 5 mg, a heating rate of 10° C./min, and a nitrogen gas flow rate of 40-45 mL/min. Using the TGA 7 software, the following temperatures were recorded: (1) the onset temperature of decomposition, (2) the temperature at which 50% of the sample weight was lost, and (3) the temperature at which 90% of the sample weight was lost.

[7] = Chem. Res. Toxicol. 1996, 9, 689-95; cited from earlier work
[8] = hydrolytic stability of esters stirred with concentrated aqueous ammonium hydroxide; assay type: physicochemical; conditions: 2 days or comparable conditions
From the text: The acrylate and methacrylate esters from Examples D1-D11 were fully recoverable with essentially no degradation after being stirred with concentrated aqueous ammonium hydroxide for a period of 2 days.

O=C(O)C(F)(C(F)(F)F)C(F)(F)C(F)(F)C(F)(F)C(F)(F)C(F)(F)C(F)(F)C(F)(F)F (stereo not shown) [Example M14, C7 F15 CF(CF3)COO^- H4 N^+]
post-exposure observation of toxicity [1]: no evidence of toxicity (death) or evidence of wasting syndrome
time to second peak (olefin) in exhaust gas; monohydride peak noticeably larger [1]: 92 min
time to slight peak of monohydride in exhaust gas [1]: 24 min
olefin and monohydride peaks in exhaust gas ([1]; after 217 minutes): both peaks became significantly larger
olefin or hydride in exhaust gas ([1]; initially): no olefin or hydride were detected
CMC [2]: 2500 ppm
Surf. Tens. at the CMC [2]: 16.5 dynes/cm
toxicity rating ([3]; listed as C7 F15 CF(CF3)COO^- NH4^+): relatively low toxicity; also recorded: only slightly toxic
time after which rats began regaining weight ([3]; one-time feeding): 3 days
time of deaths from toxic doses ([3]; one-time feeding): 2 to 3 days
wasting syndrome ([3]; one-time feeding): No wasting syndrome was noted
Latex Stability ([4]; 350 ppm emulsifier): 2
Latex Stability ([4]; 3500 ppm emulsifier): 0

CCN(CC(=O)O)S(=O)(=O)C(F)(F)C(F)(F)C(F)(F)C(F)(F)C(F)(F)C(F)(F)C(F)(F)C(F)(F)F [Fluorad ™ FC-128, C8 F17 SO2 N(C2 H5)CH2 COO^- K^+]
Latex Stability ([4]; 100 ppm emulsifier): 2
Latex Stability ([4]; 350 ppm emulsifier): 0

O=C(O)C(F)(F)C(F)(F)C(F)(F)C(F)(F)C(F)(F)C(F)(F)C(F)(F)F [FC-143, C7 F15 COO^- H4 N^+]
CMC [2]: 8000 ppm
Surf. Tens. at the CMC [2]: 21.5 dynes/cm
degradation over 1 year (would show) [5]: no signs of degradation
Latex Stability ([4]; 350 ppm emulsifier): 2

O=C(O)C1(F)C(F)(F)C(F)(F)C(F)(F)C(F)(F)C1(F)F [U.S. Pat. No. 2,567,011]
Onset temperature of decomposition [6]: 100 °C
Temperature for 50% loss [6]: 110 °C
Temperature for 90% loss [6]: 120 °C

O=C(O)C(F)(C(F)(F)F)C(F)(F)C(F)(F)C(F)(F)C(F)(F)C(F)(F)F (stereo not shown) [Example M28, C5 F11 CF(CF3)COO^- Na^+]
Temperature for 50% loss ([6]; listed as N8): 250 °C

O=C(O)C(F)(F)C(F)(F)C(F)(F)C(F)(F)C(F)(F)C(F)(F)C(F)(F)C(F)(F)C(F)(F)F [C9 F19 COO^- NH4^+, reference compound]
toxicity [7]: moderately toxic
toxicity relative to the α-branched isomer ([3]; LD50 based): ca. 10 times
toxicity rating [3]: moderately toxic
wasting syndrome ([3]; one-time feeding): Wasting syndrome was observed

C=CC(=O)OCCOC(=O)C(F)(F)C(F)(F)C(F)(F)C(F)(F)C(F)(F)C(F)(F)C(F)(F)F [C7 F15 COOCH2 CH2 OCOCH=CH2]
hydrolytic stability [8]: readily hydrolyzed
